From US10383335B2, “Bicyclic pyrazole pesticides” (FMC Corporation, priority 2015, dated 2019)
Like-named read-outs stand apart in the source and are kept apart here.

Experiments:
[1] = system: Western Flower Thrips (Frankliniella occidentalis (Pergande)); assay: Test C: control of Western Flower Thrips on Soleil bean plant, spray, contact and/or systemic; format: in vivo; conditions: sprayed at 250 ppm, adult thrips, held 6 days
Experimental: (§1) Test compounds were formulated using a solution containing 10% acetone, 90% water and 300 ppm X-77® Spreader Lo-Foam Formula non-ionic surfactant containing alkylarylpolyoxyethylene, free fatty acids, glycols and isopropanol (Loveland Industries, Inc. Greeley, Colo., USA). The formulated compounds were applied in 1 mL of liquid through a SUJ2 atomizer nozzle with ⅛ JJ custom body (Spraying Systems Co. Wheaton, Ill., USA) positioned 1.27 cm (0.5 inches) above the top of each test unit. Test compounds were sprayed at the rates indicated, and each test was replicated three times.
For evaluating control of the Western Flower Thrips (Frankliniella occidentalis (Pergande)) through contact and/or systemic means, the test unit consisted of a small open container with a 5-7-day-old Soleil bean plant inside.
Test compounds were formulated and sprayed at 250 ppm. After spraying, the test units were allowed to dry for 1 hour, and then 22-27 adult thrips were added to each unit. A black, screened cap was placed on top, and the test units were held for 6 days at 25° C. and 45-55% relative humidity.

[2] = system: green peach aphid (Myzus persicae (Sulzer)); assay: Test A: control of green peach aphid on radish plant, spray, contact and/or systemic; format: in vivo; conditions: 144 h, assessed after 6 days; for mortality at 50 ppm: sprayed at 50 ppm; for mortality at 250 ppm: sprayed at 250 ppm
Experimental: as §1
For evaluating control of green peach aphid (Myzus persicae (Sulzer)) through contact and/or systemic means, the test unit consisted of a small open container with a 12-15-day-old radish plant inside. This was pre-infested by placing on a leaf of the test plant 30-40 aphids on a piece of leaf excised from a culture plant (cut-leaf method). The aphids moved onto the test plant as the leaf piece desiccated. After pre-infestation, the soil of the test unit was covered with a layer of sand.
Test compounds were formulated and sprayed at 250 and/or 50 ppm. After spraying of the formulated test compound, each test unit was allowed to dry for 1 hour and then a black, screened cap was placed on top. The test units were held for 6 days in a growth chamber at 19-21° C. and 50-70% relative humidity. Each test unit was then visually assessed for insect mortality.

[3] = system: cotton melon aphid (Aphis gossypii (Glover)); assay: Test B: control of cotton melon aphid on cotton plant, spray, contact and/or systemic; format: in vivo; conditions: 144 h
Experimental: as §1
For evaluating control of cotton melon aphid (Aphis gossypii (Glover)) through contact and/or systemic means, the test unit consisted of a small open container with a 6-7-day-old cotton plant inside. This was pre-infested with 30-40 insects on a piece of leaf according to the cut-leaf method, and the soil of the test unit was covered with a layer of sand.
Test compounds were formulated and sprayed at 250 and/or 50 ppm. After spraying, the test units were maintained in a growth chamber for 6 days at 19° C. and 70% relative humidity. Each test unit was then visually assessed for insect mortality.

[4] = system: sweetpotato whitefly (Bemisia tabaci (Gennadius)); assay: Test D: control of sweetpotato whitefly on cotton plant, spray, contact and/or systemic; format: in vivo; conditions: 312 h, sprayed at 250 ppm, cotton plant infested with eggs, assessed after 13 days
Experimental: as §1
For evaluating control of the sweetpotato whitefly (Bemisia tabaci (Gennadius)) through contact and/or systemic means, the test unit consisted of a small open container with a 12-14-day-old cotton plant inside. Prior to the spray application, both cotyledons were removed from the plant, leaving one true leaf for the assay. Adult whiteflies were allowed to lay eggs on the plant and then were removed from the test unit. Cotton plants infested with at least 15 eggs were submitted to the test for spraying.
Test compounds were formulated and sprayed at 250 and/or 50 ppm. After spraying, the test units were allowed to dry for 1 hour. […] Each test unit was then visually assessed for insect mortality.

[5] = sprayed at 250 ppm, cotton plant, assessed after 6 days, read-out: mortality

| Molecule | control efficacy (30% or less plant damage and/or 100% mortality) [1] | mortality at 250 ppm [2] [%] | mortality at 250 ppm [3, 5] [%] | other results |
| --- | --- | --- | --- | --- |
| 2,4,6,7-tetrahydro-2-(3-pyridinyl)-N-(2,2,2-trifluoromethyl)-5H-pyrazolo[4,3-c]pyridine-5-carboxamide [Compound 15] | very good to excellent levels of control efficacy | – | – | – |
| COC(=O)NNC(=O)N1CCc2nn(-c3cccnc3)cc2C1 [Compound 10, 2,4,6,7-tetrahydro-2-(3-pyridinyl)-5H-pyrazolo[4,3-c]pyridine-5-carboxylic acid, 2-(methoxycarbonyl)hydrazide] | very good to excellent levels of control efficacy | ≥ 80 | – | mortality at 50 ppm [2]: ≥ 80% |
| COC(CN(C)C(=O)N1CCc2nn(-c3cccnc3)cc2C1)OC [Compound 14, 2,4,6,7-tetrahydro-N-methyl-2-(3-pyridinyl)-N-(2,2-dimethoxyethyl)-5H-pyrazolo[4,3-c]pyridine-5-carboxamide] | – | ≥ 80 | – | mortality at 50 ppm [2]: ≥ 80% |
| FC(F)(F)c1ccc(N2CCc3nn(-c4cccnc4)cc3C2)nc1 [Compound 19] | very good to excellent levels of control efficacy | – | – | – |
| FC(F)(F)c1cc(N2CCc3nn(-c4cccnc4)cc3C2)ccn1 [Compound 20, 4,5,6,7-tetrahydro-2-(3-pyridinyl)-5-[2-(trifluoromethyl)-4-pyridinyl]-2H-pyrazolo[4,3-c]pyridine] | very good to excellent levels of control efficacy | ≥ 80 | – | mortality at 50 ppm [2]: ≥ 80% |
| O=C(CCSCC(F)(F)F)N1CCc2nn(-c3cccnc3)cc2C1 [Compound 22, 1-[2,4,6,7-tetrahydro-2-(3-pyridinyl)-5H-pyrazolo[4,3-c]pyridin-5-yl]-3-[(2,2,2-trifluoroethyl)thio]-1-propanone] | very good to excellent levels of control efficacy | ≥ 80 | ≥ 80 | – |
| O=C(CC[S+]([O-])CC(F)(F)F)N1CCc2nn(-c3cccnc3)cc2C1 (stereo not shown) [Compound 23, 1-[2,4,6,7-tetrahydro-2-(3-pyridinyl)-5H-pyrazolo[4,3-c]pyridin-5-yl]-3-[(2,2,2-trifluoroethyl)sulfinyl]-1-propanone] | very good to excellent levels of control efficacy | ≥ 80 | ≥ 80 | – |
| O=C(NCC(F)(F)F)N1CCc2nn(-c3cccnc3)cc2C1 [Compound 28] | – | – | – | melting point: 118.3 to 155.3 °C |
| CNC(=O)N1CCc2nn(-c3cccnc3)cc2C1 [Compound 29] | – | – | – | melting point: 212 to 224.2 °C |
| CCNC(=O)N1CCc2nn(-c3cccnc3)cc2C1 [Compound 31] | – | – | – | melting point: 151.1 to 170.5 °C |
| COC1CC(NC(=O)N2CCc3nn(-c4cccnc4)cc3C2)C1 (stereo not shown) [Compound 47, 2,4,6,7-tetrahydro-N-(3-methoxycyclobutyl)-2-(3-pyridinyl)-5H-pyrazolo[4,3-c]pyridine-5-carboxamide] | – | – | ≥ 80 | – |
| c1cncc(-n2cc3c(n2)CCN(c2cnccn2)C3)c1 [Compound 48, 4,5,6,7-tetrahydro-2-(3-pyridinyl)-5-(2-pyrazinyl)-2H-pyrazolo[4,3-c]pyridine] | – | – | ≥ 80 | – |
| c1ccc(N2CCc3nn(-c4cccnc4)cc3C2)nc1 [Compound 49] | – | – | – | melting point: 117 to 125.1 °C |
| CN(C)C(=O)OCC(=O)N1CCc2nn(-c3cccnc3)cc2C1 [Compound 51, 2-oxo-2-[2,4,6,7-tetrahydro-2-(3-pyridinyl)-5H-pyrazolo[4,3-c]pyridin-5-yl]ethyl N,N-dimethylcarbamate] | – | – | – | mortality at 250 ppm [3]: ≥ 80% |
| c1cncc(N2CCc3nn(-c4cccnc4)cc3C2)c1 [Compound 52] | – | ≥ 80 | – | mortality at 250 ppm [4]: ≥ 50% |
| N#CCC(=O)N1CCc2nn(-c3cccnc3)cc2C1 [Compound 54, 2,4,6,7-tetrahydro-β-oxo-2-(3-pyridinyl)-5H-pyrazolo[4,3-c]pyridine-5-propanenitrile] | – | ≥ 80 | ≥ 80 | mortality at 250 ppm [4]: ≥ 50% |
